Reference: patent publication US11021481B2, “Substituted isoindolin-1-ones and 2,3-dihydro-1h-pyrrolo[3,4-c]pyridin-1-ones as HPK1 antagonists” (Nimbus Saturn, Inc., priority 2019, dated 2021)
Counter-ions that a name gives are not always drawn.

target: HPK1 (Homo sapiens (Human), UniProt Q92918); assay: HPK1 biochemical enzyme assay (microfluidic mobility shift assay); details: 1.5 nM HPK1, ATP 1 mM final, 30 min preincubation, 60 min at RT, Caliper EZ Reader; read-out: HPK1 1000UMATP caliper IC50
Description: HPK1 biochemical enzyme assay: HPK1 enzyme inhibition was measured using a microfluidic mobility shift assay. […] Test compounds were titrated in ten point curves (top final assay concentration 3 μM), and preincubated with enzyme/substrate mix for 30 min prior to initiation of the reaction by addition of ATP (1 mM final concentration) and substrate (1 μM final concentration; Carna Biosciences) diluted in assay buffer supplemented by MgCl2 (final assay concentration of 5 mM). Following 60 min incubation at RT, the reaction was terminated by addition of 60 µl/well termination buffer (Carna Biosciences) and signal determination using aCaliper EZ Reader (Perkin Elmer, UK).
The compound numbers correspond to the compound numbers in Table 1.

Sequence of HPK1 (Q92918 whole entry): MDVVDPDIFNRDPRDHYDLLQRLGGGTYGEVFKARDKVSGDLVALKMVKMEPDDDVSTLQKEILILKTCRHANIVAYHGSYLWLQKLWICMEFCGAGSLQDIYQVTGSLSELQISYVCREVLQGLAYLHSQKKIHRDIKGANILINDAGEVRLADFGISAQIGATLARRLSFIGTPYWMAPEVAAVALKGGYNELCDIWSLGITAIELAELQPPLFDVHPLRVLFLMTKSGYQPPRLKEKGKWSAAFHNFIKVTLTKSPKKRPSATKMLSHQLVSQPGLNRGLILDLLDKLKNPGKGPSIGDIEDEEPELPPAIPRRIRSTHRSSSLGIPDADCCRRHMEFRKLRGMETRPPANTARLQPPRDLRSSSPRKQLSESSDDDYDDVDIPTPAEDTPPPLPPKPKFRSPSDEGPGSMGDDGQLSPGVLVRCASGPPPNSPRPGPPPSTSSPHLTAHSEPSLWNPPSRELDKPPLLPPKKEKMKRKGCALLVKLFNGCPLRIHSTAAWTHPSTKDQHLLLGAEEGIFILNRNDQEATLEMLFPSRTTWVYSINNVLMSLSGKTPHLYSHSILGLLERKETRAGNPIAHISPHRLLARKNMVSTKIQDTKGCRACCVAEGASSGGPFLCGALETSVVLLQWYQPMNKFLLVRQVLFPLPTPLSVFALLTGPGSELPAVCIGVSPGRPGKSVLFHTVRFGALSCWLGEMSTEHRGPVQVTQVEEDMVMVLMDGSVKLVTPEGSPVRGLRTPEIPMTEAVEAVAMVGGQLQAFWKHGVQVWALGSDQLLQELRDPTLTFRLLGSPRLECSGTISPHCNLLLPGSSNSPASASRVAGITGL

Row | IC50 [nM] | Compound
1 | < 100 | O=C1NCc2c(-c3cnc4cc(F)ccn34)ccc(Nc3ccc([C@@H]4CCOC4)c(CN4CC[C@H](O)C4)n3)c21 [I-779, 4-(7-fluoroimidazo[1,2-a]pyridin-3-yl)-7-((6-(((S)-3-hydroxypyrrolidin-1-yl)methyl)-5-((S)-tetrahydrofuran-3-yl)pyridin-2-yl)amino)isoindolin-1-one]
2 | < 100 | Cn1ccc2c(-c3ncc(Nc4ccc(N5CCNCC5)cn4)c4c3CNC4=O)ccnc21 [I-258, 4-(1-methyl-1H-pyrrolo[2,3-b]pyridin-4-yl)-7-((5-(piperazin-1-yl)pyridin-2-yl)amino)-2,3-dihydro-1H-pyrrolo[3,4-c]pyridin-1-one]
3 | < 100 | CN1CCN(c2ccc(Nc3ccc(-c4cccc5[nH]ccc45)c4c3C(=O)NC4)nc2)CC1 [I-41, 4-(1H-indol-4-yl)-7-[[5-(4-methylpiperazin-1-yl)-2-pyridyl]amino] isoindolin-1-one]
4 | < 100 | CC(C)NCc1nc(Nc2cnc(-c3ccnc4c3ccn4C)c3c2C(=O)NC3)ccc1C1CCOCC1 [I-844, 7-[[6-[(isopropylamino)-methyl]-5-tetrahydropy-ran-4-yl-2-pyridyl]amino]-4-(1-methylpyrrolo [2,3-b]pyridin-4-yl)-2,3-dihydropyrrolo [3,4-c]pyridin-1-one Formic acid salt]
5 | < 100 | O=C1NCc2c(-c3cnn4c3CCCC4)ccc(Nc3ccc(N4CCC[C@]5(CCNC5=O)C4)cn3)c21 [I-446, (S)-7-(6-((3-oxo-7-(4,5,6,7-tetrahydropyra-zolo[1,5-a]pyridin-3-yl)isoindolin-4-yl)amino)pyri-din-3-yl)-2,7-diazaspiro[4.5] decan-1-one]
6 | < 100 | CN(C)Cc1nc(Nc2cnc(-c3ccnc4c3ccn4C)c3c2C(=O)NC3)ccc1N1CCOCC1 [I-768, 7-((6-((dimethylamino)-methyl)-5-morpholinopy-ridin-2-yl)amino)-4-(1-methyl-1H-pyrrolo[2,3-b]pyridin-4-yl)-2,3-dihydro-1H-pyrrolo[3,4-c]pyridin-1-one]
7 | < 100 | O=C1NCc2c(-c3cnc4cc(F)ccn34)ccc(Nc3ccc([C@H]4CCOC4)c(CN4CCOCC4)n3)c21 (stereo in doubt) [I-720, (SMK7-fluoroimidazo [1,2-a]pyridin-3-yl)-7-((6-(morpholinomethyl)-5-(tetrahydrofuran-3-yl)pyridin-2-yl)amino)isoin-dolin-1-one]
8 | < 100 | CN(C)Cc1nc(Nc2ccc(-c3ccnc4c3ccn4C)c3c2C(=O)NC3)ccc1[C@@H]1CCOC1 [I-545, (S)-7-((6-((dimethylamino)-methyl)-5-(tetrahydrofuran-3-yl)pyridin-2-yl)amino)-4-(1-methyl-1H-pyrrolo[2,3-b]pyridin-4-yl)isoindolin-1-one]
9 | < 100 | 7-[[5-(4-hydroxy-1- piperidyl)-2-pyridyl] amino]-4-imidazo[1,2- a]pyridin-3-yl- isoindolin-1-one [I-125]
10 | < 100 | Cc1cc(Nc2cnc(-c3ccnc4c3ccn4C)c3c2C(=O)NC3)nc(N2CC[C@H]3CNC[C@H]32)c1 [I-641, 7-((6-((3aS.6aS)-hcxahydropyrr-olo[3,4-b]pyrrol-1(2H)-yl)-4-methylpyridin-2-yl)amino)-4-(1-methyl-1H-pyrrolo[2,3-b]pyridin-4-yl)-2,3-dihydro-1H-pyrrolo[3,4-c]pyridin-1-one]
11 | < 100 | CN(C)Cc1nc(Nc2ccc(-c3cnc4cc(F)ccn34)c3c2C(=O)NC3)ccc1O[C@H]1CCOC1 [I-544, 7-[[6-[(dimethylamino)-methyl]-5-[(3S)-tetrahydrofuran-3-yl]oxy-2-pyridyl]amino]-4-(7-fluoroimidazo [1,2-a]pyridin-3-yl)isoindolin-1-one]
12 | 100 to 1000 | O=C1NCc2c(-c3cnn4c3CCC(C(=O)NC3CC3)C4)ccc(Nc3ccc(N4CCC(O)CC4)cn3)c21 (centres unmarked) [I-150, N-cyclopropyl-3-[7-[[5-(4-hydroxy-1-piperidyl)-2-pyridyl]amino]-1-oxo-isoindolin-4-yl]-4,5,6,7-tetrahydropyra-zolo[1,5-a]pyridine-6-carboxamide]
13 | < 100 | CN(CCO)Cc1nc(Nc2ccc(-c3cnc4cc(F)ccn34)c3c2C(=O)NC3)ccc1C1CCOC1 (stereo in doubt) [I-734, (R)-4-(7-fluoroimidazo [1,2-a]pyridin-3-yl)-7-((6-(((2-hydroxyethy (methyl)amino)methyl)-5-(tetrahydrofuran-3-yl)pyridin-2-yl)amino)isoin-dolin-1-one]
14 | < 100 | CC(C)(O)[C@@H]1CCCN(c2ccc(Nc3ccc(-c4cnc5cnccn45)c4c3C(=O)NC4)nc2)C1 [I-311, (R)-7-((5-(3-(2-hydroxypropan-2-yl)piperidin-1-yl)pyridin-2-yl)amino)-4-(imidazo[1,2-a]pyrazin-3-yl)isoindolin-1-one]
15 | < 100 | CC(C)(O)[C@@H]1CN(c2ccc(Nc3ccc(-c4cnc5cc(F)ccn45)c4c3C(=O)NC4)nc2)CCO1 [I-344]
16 | < 100 | Cn1ccc2c(-c3ncc(Nc4ccc(N5CCC[C@@H](O)C5)cn4)c4c3CNC4=O)ccnc21 [I-178, 7-[[5-[(3R)-3-hydroxy-1-piperidyl]-2-pyridyl]amino]-4-(1-methylpyrrolo [2,3-b]pyridin-4-yl)-2,3-dihydropyrrolo [3,4-c]pyridin-1-one]
17 | 100 to 1000 | O=C1NCc2c(-c3cnc4cc(F)ccn34)ccc(Nc3ccc(S(=O)(=O)CC4COC4)cn3)c21 [I-377, 4-(7-fluoroimidazo [1,2-a]pyridin-3-yl)-7-((5-((oxctan-3-ylmethyl)sulf-onyl)pyridin-2-yl)amino)isoin-dolin-1-one]
18 | < 100 | O=C1NCc2c(-c3cnc4cc(F)ccn34)ccc(Nc3ccc(C4CCOC4)c(CN4CCCC4)n3)c21 (centres unmarked) [I-505, 4-(7-fluoroimidazo [1,2-a]pyridin-3-yl)-7-[[6-(pyrrolidin-1-ylmethyl)-5-tetrahydrofuran-3-yl-2-pyridyl]amino]isoindolin-1-one]
19 | < 100 | Cc1ccn2c(-c3ccc(Nc4ccc(N5CCC(O)CC5)cn4)c4c3CNC4=O)cnc2c1C [I-176, 4-(7,8-dimethylimi-dazo[1,2-a]pyridin-3-yl)-7-[[5-(4-hydroxy-1-piperidyl)-2-pyridyl]amino] isoindolin-1-one]
20 | < 100 | COc1c(F)ccn2c(-c3ccc(Nc4ccc(N5CCC(O)CC5)cn4)c4c3CNC4=O)cnc12 [I-242, 4-(7-fluoro-8-methoxy-imidazo[1,2-a]pyridin-3-yl)-7-[[5-(4-hydroxy-1-piperidyl)-2-pyridyl]amino] isoindolin-1-one]
21 | < 100 | C[C@H]1COCCN1c1ccc(Nc2ccc(-c3cnc4cc(F)ccn34)c3c2C(=O)NC3)nc1CN(C)C [I-531, 7-[[6-[(dimethylamino)-methyl]-5-[(3S)-3-methylmorpho-lin-4-yl]-2-pyridyl]amino] 4-(7-fluoroimidazo [1,2-a]pyridin-3-yl)isoindolin-1-one]
22 | < 100 | C[C@@H]1CC[C@@](C)(O)CN1c1ccc(Nc2ccc(-c3cnn4c3CCCC4)c3c2C(=O)NC3)nc1 [I-598, 7-((5-((2R,5R)-5-hydroxy-2,5-dimethyl-piperidin-1-yl)pyridin-2-yl)amino)-4-(4,5,6,7-tetrahydropyra-zolo[1,5-a]pyridin-3-yl)isoindolin-1-one]
23 | < 100 | CN(C)C(C)(C)C1CN(c2ccc(Nc3ccc(-c4cnc5cc(F)ccn45)c4c3C(=O)NC4)nc2)CCO1 (stereo in doubt) [I-591, (S)-7-((5-(2-(2-(dimethylami-no)propan-2-yl)morpho-lino)pyridin-2-yl)amino)-4-(7-fluoroimidazo [1,2-a]pyridin-3-yl)isoindolin-l-one]
